Measurements reported in patent publication US20210363110A1, “4-METHYLDIHYDROPYRIMIDINONE COMPOUNDS AND PHARMACEUTICAL USE THEREOF” (Japan Tobacco Inc., priority 2018, published 2021).
Converted amounts (≈) assume the structure as drawn. Like-named read-outs stand apart in the source and are kept apart here.

Assays:
[1] = Measurement of solubility (JP1, JP2, FaSSIF, FeSSIF); assay type: physicochemical; conditions: thermodynamic from solid, shaken 4 hours
Protocol: A 10 mM DMSO solution (10 μL) of test substance was added to a 96-well plate, and the mixture was concentrated and dried with a centrifugal evaporator (Genevac HT-4X). 200 μL of each solvent (JP1, JP2, FaSSIF, FeSSIF) (see Non Patent Literatures 29 and 30) was added to the well after evaporation. The mixture was shaken at room temperature at 2500 rpm for 4 hours. Then, the mixture was filtered in two parts with MultiScreen PCF filter (MERCK Millipore; MSSLBPC) to give samples (50 and 100 μL). 40 μL was collected from the sample obtained in the second filtration, and thereto was added acetonitrile (300 μL). After centrifugation (4000 g, 5 min.) of the mixture, a part of the supernatant was measured by LC-UV/MS (UPLC-Premier (waters)).

[2] = Rat pharmacokinetic (PK) assay and measurement of plasma concentrations; assay type: in vivo; conditions: male rat, 0.3 mg/kg, DMSO solution, T1/2=0.693/Kel
Protocol: A DMSO solution (0.1 mL/kg) of test substance (0.3 mg/kg) was administered to a male rat (7-week old), and blood was collected at designated times (5, 10, 15, 30 min., 1, 2, 4, 8, 25 hr). Samples after the blood collection were separated by centrifugation (11000 g, 5 min.) to obtain plasmas.
A double volume of a mixed solution of acetonitrile/water (9:1) was added to a plasma sample obtained in (1) in order that proteins were extracted from the mixture. The sample after extraction was separated by centrifugation (11000 g, 5 min.), and the supernatant was measured by LC/MSMS (Nexera (Shimadzu)-QTrap5500 (AB SCIEX)). A calibration curve was measured simultaneously, and plasma concentrations were calculated.
The elimination rate constant (Kel) was calculated from two points of the elimination phase in the plasma concentration profile, and the half-life (T1/2) was calculated from the elimination rate constant.
Kel=−(ln Conc1−ln Conc2)/(t1−t2)

[3] = Metabolic stability in hepatocytes, dog; assay type: in vitro ADME; conditions: residual ratio of unreacted substance, 1×10^6 cells/mL
Protocol: A test solution was prepared by diluting 10 mM DMSO solution of a test substance with acetonitrile by 20 times.
Human and animal cryopreserved hepatocyte (BIOIVT; Human (IVT-X008000), Rat (IVT-M00005), Monkey (IVT-M00305), Dog (IVT-M00205)) were adjusted with William's Medium E (SIGMA; W1878) to 1×10^6 cells/mL of a cell suspension, which was then added to a 96-well plate. Then, 1% of the solution of a test substance prepared was added to the reaction system, and the metabolic reaction was initiated. At a designated time, 0.1% formic acid-acetonitrile was added thereto, and the reaction was terminated.
The sample after termination of the reaction was separated by centrifugation (1400 g, 20 min.), and then the supernatant was measured by LC/MS (UPLC-SQD (waters)) to calculate a residual ratio of unreacted substances.

[4] = tested on: IL-17 production in plasmas; test: IL-17 production in plasmas of antigen-sensitized mice; assay type: in vivo, C57BL/6J mice; conditions: for IL-17 concentration in plasma, % of control, 0.3 mg/kg: 0.3 mg/kg orally once daily for 7 days; for IL-17 concentration in plasma, % of control, 0.3 mg/kg / IL-17 concentration in plasma, % of control, 1 mg/kg: MOG/CFA/PTX-sensitized mice, blood at day 8, Normal 0%, Vehicle 100%; for IL-17 concentration in plasma, % of control, 1 mg/kg: 1 mg/kg orally once daily for 7 days; for ED50: Mus musculus, 168 h, oral once daily for 7 days, antigen-sensitized mice, calculated from the 0.3 and 1 mg/kg groups, read-out: ED50 (dose where the IL-17 concentration was decreased by 50%)
Protocol: Effects of test substances on IL-17 production in plasmas were assessed in antigen-sensitized mice. Antigen sensitization was performed according to Non Patent Literature 31. Nine-week old female C57BL/6J mice (Japan Charles River K. K.) were used as a test animal.
An emulsion prepared by mixing 3 mg/mL of myelin oligodendrocyte glycoprotein (MOG; ANASPEC) and 4 mg/mL of complete Freund's adjuvant (CFA; Chondrex) in an equal ratio was administered subcutaneously to a mouse at the bilateral abdomens at a volume of 50 μL/site (day 1). 1 μg/mL of pertussis toxin (PTX; List Biological Laboratories) was administered intraperitoneally at a volume of 200 μL/head (day 1 and 3). Blood was collected at day 8.
Administration was performed once daily for 7 days after the administration of emulsion (day 1 to 7). 0.5% (w/v) methyl cellulose (MC) was administered orally at a volume of 10 mL/kg to Normal group (normal mice) and Vehicle group (antigen-sensitized mice), and 0.03 mg/mL or 0.1 mg/mL of a test substance suspended in 0.5% (w/v) MC was administered orally at a volume of 10 mL/kg to a compound-administered group.
Blood was separated by centrifugation, and then the IL-17 concentration in plasma was measured with Quantikine (Registered trade mark) Mouse IL-17 ELISA Kit (R&D systems, Inc.).
The IL-17 concentration of Normal group was deemed to be 0% and that of Vehicle group was deemed to be 100%. The IL-17 concentration percentage (% of control) of the compound-administered group was calculated from the following equation.
% of control=(a−b)/(c−b)×100
a: IL-17 concentration of the compound-administered group b: IL-17 concentration of the Normal group c: IL-17 concentration of the Vehicle group
Then, a dose of compound where the IL-17 concentration was decreased by 50% (ED50) was calculated from the following equation.
ED50=10^(log(A/B)×(50−D)/(C−D)+log(B); provided that ED50=B in the case D=50, and ED50>B in the case D>50 A: dosed amount of the lower dose group (i.e. 0.3 mg/kg) B: dosed amount of the higher dose group (i.e. 1 mg/kg) C: % of control at the lower dose group D: % of control at the higher dose group

[5] = pH 1.2, simulated gastric fluid, JP1, room temperature, read-out: Solubility JP1
[6] = pH 6.8, aqueous buffer, JP2, room temperature, read-out: Solubility JP2
[7] = FaSSIF, room temperature, read-out: Solubility FaSSIF
[8] = FeSSIF, room temperature, read-out: Solubility FeSSIF

solubility at 4 h [1, 5] [µM]	solubility at 4 h [1, 6] [µM]	solubility at 4 h [1, 7] [µM]	solubility at 4 h [1, 8] [µM]	half-life [2] [min]	Metabolic stability in hepatocytes at 240 min., Dog [3] [%]	SMILES	IL-17 concentration in plasma, % of control, 0.3 mg/kg [4]	IL-17 concentration in plasma, % of control, 1 mg/kg [4]	ED50 [4] [mg/kg]
< 0.8	451 (≈ 212 µg/mL)	470 (≈ 221 µg/mL)	≥ 475	630	88	CC(C)C1=CN(C23CC(C(=O)O)(C2)C3)C(=O)N[C@@]1(C)c1ccc([C@@H]2C[C@H]2C(C)(C)C)c(Cl)c1 [Compound (1), 3-{(S)-4-[4-((1R,2R)-2-tert-Butyl-cyclopropyl)-3-chloro-phenyl]-5-isopropyl-4-methyl-2-oxo-3,4-dihydro-2H-pyrimidin-1-yl}bicyclo[1.1.1]pentane-1-carboxylic acid]	66 (=C) %	24 (=D) %	0.5
< 0.7	447 (≈ 217 µg/mL)	445 (≈ 216 µg/mL)	463 (≈ 225 µg/mL)	792	78	CC[C@H](C)C1=CN(C23CC(C(=O)O)(C2)C3)C(=O)N[C@@]1(C)c1ccc([C@@H]2C[C@H]2C(C)(C)C)c(Cl)c1 [Compound (2), 3-{(S)-5-((S)-sec-Butyl)-4-[4-((1R,2R)-2-tert-butyl-cyclopropyl)-3-chloro-phenyl]-4-methyl-2-oxo-3,4-dihydro-2H-pyrimidin-1-yl}bicyclo[1.1.1]pentane-1-carboxylic acid]	85 (=C) %	54 (=D) %	> 1
